Article PMC6109596 (Cancer letters, 2018)

Target: ABCB1 (P-glycoprotein/MDR1) (Homo sapiens, UniProt P08183)
Experiment: biochemical

Sequence of ABCB1 (P-glycoprotein/MDR1) (P08183 whole entry): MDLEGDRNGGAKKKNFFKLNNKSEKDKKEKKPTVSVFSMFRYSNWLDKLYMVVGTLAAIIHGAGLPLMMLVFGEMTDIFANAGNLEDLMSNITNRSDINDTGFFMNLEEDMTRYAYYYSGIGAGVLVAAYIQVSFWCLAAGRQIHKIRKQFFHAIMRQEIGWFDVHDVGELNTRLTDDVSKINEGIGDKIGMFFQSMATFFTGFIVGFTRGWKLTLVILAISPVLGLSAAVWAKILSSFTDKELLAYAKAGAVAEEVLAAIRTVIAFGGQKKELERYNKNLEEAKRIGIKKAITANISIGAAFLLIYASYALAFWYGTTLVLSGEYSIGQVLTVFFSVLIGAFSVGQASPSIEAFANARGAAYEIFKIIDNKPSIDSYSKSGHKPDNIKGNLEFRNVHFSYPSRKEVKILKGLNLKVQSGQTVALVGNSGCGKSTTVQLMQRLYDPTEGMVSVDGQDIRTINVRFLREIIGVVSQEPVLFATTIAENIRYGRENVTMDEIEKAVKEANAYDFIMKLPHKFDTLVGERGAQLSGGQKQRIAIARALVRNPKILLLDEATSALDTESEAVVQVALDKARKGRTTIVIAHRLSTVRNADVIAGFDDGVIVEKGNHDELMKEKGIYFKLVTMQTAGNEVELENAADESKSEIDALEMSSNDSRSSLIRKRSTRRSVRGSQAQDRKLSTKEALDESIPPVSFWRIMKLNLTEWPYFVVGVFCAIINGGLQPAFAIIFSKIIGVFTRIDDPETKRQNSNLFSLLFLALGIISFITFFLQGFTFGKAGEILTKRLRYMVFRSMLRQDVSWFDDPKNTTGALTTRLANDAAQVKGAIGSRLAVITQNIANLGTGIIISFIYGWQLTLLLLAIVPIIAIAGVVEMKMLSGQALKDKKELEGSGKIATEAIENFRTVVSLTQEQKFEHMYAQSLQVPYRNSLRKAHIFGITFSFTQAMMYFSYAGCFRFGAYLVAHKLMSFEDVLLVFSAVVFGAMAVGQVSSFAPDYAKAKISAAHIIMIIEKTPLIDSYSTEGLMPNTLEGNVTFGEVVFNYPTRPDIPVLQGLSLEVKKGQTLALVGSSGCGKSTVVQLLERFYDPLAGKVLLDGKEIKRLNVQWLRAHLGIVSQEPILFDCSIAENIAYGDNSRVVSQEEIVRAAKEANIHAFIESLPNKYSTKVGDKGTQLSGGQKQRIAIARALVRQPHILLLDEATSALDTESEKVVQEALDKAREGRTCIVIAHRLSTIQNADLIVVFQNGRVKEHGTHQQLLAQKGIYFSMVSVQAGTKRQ

- IC50: ~500 nM
Compound: N#Cc1cc2c(OCC(O)CN3CCN(C(c4ccccc4)c4ccccc4)CC3)cccc2[nH]1 (racemic) [DPI-201106]
